The source of these data is patent US20110172217A1, “RING-FUSED MORPHOLINE DERIVATIVE HAVING PI3K-INHIBITING ACTIVITY” (Shionogi & Co., Ltd., priority 2008, published 2011).

Where only a bound is given, the exact number is not on record here.

Broadly, the Ki is the equilibrium dissociation constant of an inhibitor or competing ligand from its target. A word on the inhibition: it is the change of the read-out against control, counted positive when it falls. The term IC50 denotes the midpoint of a concentration-inhibition curve.

For data set [1], the target named is T1, PI-3 kinase γ (Homo sapiens, UniProt P48736). Nature of the data set: PI3Kγ inhibitory activity (Ki value). The class given is biochemical. As to conditions: test ATP concentration 10 μmol/L. As to the method: The PI3Kγ inhibitory activity (Ki value) of a compound was evaluated according to the following procedure:
5 μL of a compound solution containing 10% DMSO and 200 μmol/L of a compound was changed to 5 μL of a compound solution containing 10% DMSO and either 200, 64, 20, 6.4, 2, 0.64, or 0.20 μmol/L of the compound (optionally, this is diluted to a lower concentration). Using a method similar to the method for measuring PI3Kγ inhibitory activity, inhibition ratios were measured in the presence of the compound at 50, 16, 5, 1.6, 0.5, 0.16, and 0.05 μmol/L (optionally, a lower concentration). Then an IC50 value was calculated by a logistic approximation method or the linear regression method using two concentrations that across 50% inhibition. Separately, the ATP concentration in the reaction solution (40 μmol/L ATP, 10 mmol/L MgCl2, 5 mmol/L DTT) at the time of the start of a reaction in the absence of the compound was changed to 80, 40, 20, 10, 5, 2.5, 1.25, or 0.625 μmol/L. Then, HTRF ratios were measured by a similar method. The value obtained by subtracting the HTRF ratio at each ATP concentration from the HTRF ratio in the absence of PI-3 kinase γ was defined as the value obtained by multiplying reaction rate (v) at each ATP concentration with a constant. The Michaelis-Menten constant Km was then calculated by the Lineweaver-Burk plot method. The Ki value of a compound was calculated by the following formula.
Ki=IC50 value/(1+10 μmol/L (test ATP concentration)/Km(μmol/L))

Data set [2] concerns the target T1, PI-3 kinase γ. The experiment in a line: PI3Kγ inhibitory activity, PI3-kinase HTRF assay (inhibition ratio). The conditions noted are these: 0.5 h, compound at 50 μmol/L. The data set is classed as biochemical. The method in brief: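 Human PI3Kγ was preincubated 10 min with compound and PIP2 substrate, then reacted 30 min at room temperature with ATP (40 μmol/L in the added solution); EDTA/biotin-PIP3 quenched. HTRF 665/620 nm ratio read after 18 h, normalized to no-compound (100%) and no-enzyme (0%) controls, gave % inhibition at 50 or 10 μmol/L compound.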

Data set [3] can be described thus: Metabolic stability test, pooled human liver microsome. The class given is in vitro ADME. As to conditions: 2 μmol/L compound; human liver microsome 0.5 mg protein/mL, NADPH, 37° C. The procedure:
After a subject compound was reacted for a certain time using a commercially available pooled human liver microsome, a reacted sample and an unreacted sample are compared to calculate a survival ratio, and then the degree of metabolism in the liver was evaluated.
0.2 mL of a buffer solution (50 mmol/L of Tris-HCl in pH 7.4, 150 mmol/L of potassium chloride, and 10 mmol/L of magnesium chloride) containing a human liver microsome of 0.5 mg protein/mL was reacted in the presence of 1 mmol/L NADPH at 37° C. for 0 or 30 minutes (oxidative reaction). After reacting, 50 μL of the reaction solution was added to 100 μL of a solution of methanol/acetonitrile (1/1 (v/v)), mixed, and then centrifuged at 3000 rpm for 15 minutes. The test compound in the supernatant was quantitated with LC/MS/MS. The amount of the compound at a reaction time of 0 minute was defined as 100% and, based on that, the percentage of the test compound remained after reacting for 30 minutes was calculated.

The next data set addresses T2, CYP3A4 (Homo sapiens, UniProt P08684).
T2 construct: enzyme: pooled human liver microsome 0.2 mg protein/mL; from tissue; host or cells: pooled human liver microsomes
Nature of the data set: CYP inhibition test, hydroxylation of terfenadine. The conditions noted are these: pooled human liver microsome; one of 5 kinds. The class given is in vitro ADME. The text has this:
(§1) O-de-ethylation of 7-ethoxyresorufin (CYP1A2), methyl-hydroxylation of tolbutamide (CYP2C9), 4′-hydroxylation of mephenyloin (CYP2C19), O-demethylation of dextromethorphan (CYP2D6), and hydroxylation of terfenadine (CYP3A4), which are typical substrate for metabolic reactions of human main CYP5 molecular species (CYP1A2, 2C9, 2C19, 2D6, and 3A4), were adopted as indexes.
(§2) The reaction conditions are as follows: substrate: 0.5 μmol/L of ethoxyresorufin (CYP1A2), 100 μmol/L of tolbutamide (CYP2C9), 50 μmol/L of S-mephenyloin (CYP2C19), […] of dextromethorphan (CYP2D6), and 1 μmol/L of terfenadine (CYP3A4); reaction time; 15 minutes; reaction temperature: 37° C.; enzyme: pooled human liver microsome 0.2 mg protein/mL; test drug concentration: 1, 5, 10, and 20 μmol/L (4 points).
(§3) In a 96-well plate, as a reaction solution, five kinds of substrates, a human liver microsome, and a test drug were added to 50 mmol/L Hepes buffer solution in the aforementioned ratio. A coenzyme NADPH was added to start a metabolic reaction, which is an index. After reacting at 37° C. for 15 minutes, a solution of methanol/acetonitrile (1/1 (v/v)) was added to quench the reaction. After centrifugation at 3000 rpm for 15 minutes, resorufin (CYP1A2 metabolite) in the supernatant was quantitated with a fluorescence multilabel counter, and hydroxylated tolbutamide (CYP2C9 metabolite), 4′-hydroxylated mephenyloin (CYP2C19 metabolite), […], terfenadine in alcohol form (CYP3A4 metabolite) were quantitated with LC/MS/MS.
(§4) The case wherein only DMSO (a solvent which dissolved a drug) was added to a reaction system was defined as a control (100%). When a test drug solution was added, the remaining activity (%) at each concentration was calculated, and then IC50 was calculated with a concentration and an inhibition ratio by an inverse estimation using a logistic model.
A general note: Liver microsomes are a subcellular fraction often used to study metabolism.

The target in a further data set is T3, CYP2D6 (Homo sapiens, UniProt P10635).
T3 construct: enzyme: pooled human liver microsome 0.2 mg protein/mL; from tissue; host or cells: pooled human liver microsomes
T3 sequence (P10635 whole entry): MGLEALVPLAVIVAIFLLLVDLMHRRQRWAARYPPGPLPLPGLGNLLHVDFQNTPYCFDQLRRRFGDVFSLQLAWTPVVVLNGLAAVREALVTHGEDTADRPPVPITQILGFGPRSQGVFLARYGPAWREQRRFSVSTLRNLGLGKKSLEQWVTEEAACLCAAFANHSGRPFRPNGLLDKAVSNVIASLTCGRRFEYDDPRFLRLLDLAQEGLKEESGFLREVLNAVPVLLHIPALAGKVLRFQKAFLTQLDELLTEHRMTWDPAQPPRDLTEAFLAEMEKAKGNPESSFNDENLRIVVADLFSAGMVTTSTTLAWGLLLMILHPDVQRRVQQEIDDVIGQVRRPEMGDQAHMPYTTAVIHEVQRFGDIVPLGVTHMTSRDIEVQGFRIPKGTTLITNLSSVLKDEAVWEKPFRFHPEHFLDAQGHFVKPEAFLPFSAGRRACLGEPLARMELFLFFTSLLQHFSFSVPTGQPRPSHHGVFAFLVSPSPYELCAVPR
Nature of the data set: CYP inhibition test, O-demethylation of dextromethorphan. The data set is classed as in vitro ADME. The conditions noted are these: pooled human liver microsome; one of 5 kinds.
From the text: as §1, §2, §3, §4

T1 sequence (P48736 whole entry): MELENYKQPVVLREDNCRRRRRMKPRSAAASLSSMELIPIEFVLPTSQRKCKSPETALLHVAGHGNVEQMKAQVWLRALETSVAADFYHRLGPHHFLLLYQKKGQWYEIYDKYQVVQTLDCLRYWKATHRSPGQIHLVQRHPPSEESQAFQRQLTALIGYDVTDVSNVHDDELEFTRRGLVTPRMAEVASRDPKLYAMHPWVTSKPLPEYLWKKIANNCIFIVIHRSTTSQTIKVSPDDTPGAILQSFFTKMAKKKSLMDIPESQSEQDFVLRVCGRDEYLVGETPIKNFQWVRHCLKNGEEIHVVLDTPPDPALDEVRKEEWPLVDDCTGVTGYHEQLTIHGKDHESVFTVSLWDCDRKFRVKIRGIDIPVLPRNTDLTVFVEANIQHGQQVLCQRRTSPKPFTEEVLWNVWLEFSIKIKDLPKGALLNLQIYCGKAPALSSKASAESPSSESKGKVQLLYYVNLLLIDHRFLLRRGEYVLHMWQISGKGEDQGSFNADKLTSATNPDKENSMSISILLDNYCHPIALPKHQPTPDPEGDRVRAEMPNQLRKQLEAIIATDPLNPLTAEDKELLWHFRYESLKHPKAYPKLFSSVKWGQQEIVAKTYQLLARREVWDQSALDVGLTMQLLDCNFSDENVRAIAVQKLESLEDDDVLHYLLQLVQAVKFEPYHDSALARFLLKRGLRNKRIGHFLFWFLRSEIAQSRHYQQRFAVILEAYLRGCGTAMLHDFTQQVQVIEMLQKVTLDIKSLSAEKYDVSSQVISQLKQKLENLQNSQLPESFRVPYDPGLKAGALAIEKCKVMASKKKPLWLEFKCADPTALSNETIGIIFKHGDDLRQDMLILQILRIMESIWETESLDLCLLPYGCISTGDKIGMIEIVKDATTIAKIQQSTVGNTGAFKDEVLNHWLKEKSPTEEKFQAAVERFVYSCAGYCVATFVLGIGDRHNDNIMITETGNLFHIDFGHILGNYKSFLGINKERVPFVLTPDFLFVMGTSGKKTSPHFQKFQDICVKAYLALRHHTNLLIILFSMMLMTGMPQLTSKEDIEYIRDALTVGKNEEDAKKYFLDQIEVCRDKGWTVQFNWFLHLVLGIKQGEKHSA
T2 sequence (P08684 whole entry): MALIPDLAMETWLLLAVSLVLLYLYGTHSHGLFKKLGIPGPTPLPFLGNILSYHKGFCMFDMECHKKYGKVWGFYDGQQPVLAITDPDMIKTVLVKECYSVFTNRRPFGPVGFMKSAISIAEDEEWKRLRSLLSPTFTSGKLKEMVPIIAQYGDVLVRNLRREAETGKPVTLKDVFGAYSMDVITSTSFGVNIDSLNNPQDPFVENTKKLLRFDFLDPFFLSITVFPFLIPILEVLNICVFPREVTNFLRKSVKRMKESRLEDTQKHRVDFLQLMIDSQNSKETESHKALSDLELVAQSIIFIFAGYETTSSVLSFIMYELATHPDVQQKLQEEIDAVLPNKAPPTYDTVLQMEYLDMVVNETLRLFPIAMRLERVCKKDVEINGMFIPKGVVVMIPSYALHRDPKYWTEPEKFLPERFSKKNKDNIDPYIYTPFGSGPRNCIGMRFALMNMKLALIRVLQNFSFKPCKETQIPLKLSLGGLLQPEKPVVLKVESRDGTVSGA

The compound `O=C(O)c1ccccc1Nc1ccc2c(n1)N(C(=O)Nc1ccccc1)CCO2` [Compound I-145] registered a Ki at PI-3 kinase γ [1] of 44 nM. In addition, the inhibition at 50 µM at PI-3 kinase γ [2] amounted to 81%. In addition, the “percentage of test compound remained after reacting for 30 minutes” value in data set [3] was 88.4%.

In the case of `O=C(O)COc1cccc(Nc2ccc3c(n2)N(C(=O)Nc2ccccc2)CCO3)c1` [Compound I-240], affinity on PI-3 kinase γ [1] was put at a Ki of 48 nM. In addition, the 50% inhibitory concentration (IC50) at CYP3A4 and on CYP2D6 was more than 20000 nM in each case. In addition, the inhibition at 50 µM at PI-3 kinase γ [2] is not below 95%. Besides, the “percentage of test compound remained after reacting for 30 minutes” value in data set [3] is on record as 89.9%.
